In patent publication US20250154108A1 (priority 2022, published 2025):

Assay: in vivo
Design: species or system SD rats
Details: male, SD, rat, plasma, po, 1 mg/kg; read-out: Bioavailability F

- bioavailability: 123%
SMILES: C[C@H](NC1=CC(=O)C2(CCCC2)C(=O)N1)c1cc(F)ccc1F [Compound of formula (I)]
